Measured values as given in patent publication EP4740942A1, “AROMATIC AMIDE DERIVATIVE AND USE THEREOF” (HUAJIAN FUTURE (CHENGDU) TECHNOLOGY CO., LTD., priority 2023, dated 2025).

Experiments:
[1] = system: pancreatic cancer cells MIA PaCa-2; experiment: Pharmacodynamic experiment of subcutaneous xenograft tumor model of pancreatic cancer cells MIA PaCa-2; assay type: in vivo, BALB/c nude mice; conditions: 0.2 mg/kg, QD × 15 days, oral gavage; for diets, weights and activities of the animals during the drug administration / Tumor inhibition rate: BALB/c nude mice; for Tumor inhibition rate: MIA PaCa-2 subcutaneous xenograft; for inhibitory effects on the growth of subcutaneously transplanted tumors of pancreatic cancer MIA PaCa-2 cells in the nude mice: result in words
[2] = In-vivo pharmacokinetic study in SD rats; conditions: 0.2 mg/kg
Experimental: Pharmacokinetic study on compound 4-1 in SD rats was conducted. 12 SD rats (half male and half female) were selected and randomly divided into 2 groups (3 rats/sex/group) according to their body weights, and the groups were recorded as a group 1 and a group 2, which were administered with 0.2 mg/kg compound 4-1 by intravenous and oral gavage route respectively. All the experimental animals were administered with a single dose on Day 0, and a drug administration moment was recorded as 0 hour. About 0.25 mL of whole blood (EDTA-K2) was respectively collected from all the experimental animals in group 1 before the drug administration, at 5 minutes, 15 minutes, 30 minutes, 1 hour, 2 hours, 4 hours, 6 hours, 8 hours and 24 hours after finishing the drug administration to prepare plasma; and about 0.25 mL of whole blood (EDTA-K2) was respectively collected from all the experimental animals in group 2 before the drug administration, at 15 minutes, 30 minutes, 1 hour, 2 hours, 4 hours, 6 hours, 8 hours and 24 hours after finishing the drug administration to prepare plasma. The compounds in the plasma samples were quantitatively determined by a LC-MS/MS method, and pharmacokinetic parameters were analyzed and calculated by non-compartmental analysis.

[3] = system: colorectal cancer cells SW480; experiment: Pharmacodynamic experiment of subcutaneous xenograft tumor model of colorectal cancer cells SW480; assay type: in vivo, BALB/c nude mice; conditions: 0.2 mg/kg, QD × 18 days, oral gavage
Experimental: Animal species and number: BALB/c nude mice, 6 mice in each group.
Experimental samples: compound 4-1 and compound Ref A-1.
Experimental groups: blank solvent control group, compound 4-1 (0.2 mg/kg, QD × 18 days) and compound Ref A-1 (0.2 mg/kg, QD × 18 days).
Establishment of animal model: SW480 tumor cells in logarithmic growth period were cultured and collected in vitro, and inoculated subcutaneously in right backs of the Balb/c Nude mice, and when tumors grew to about 180-250 mm^3, the tumor-bearing mice were randomly divided into groups. Subsequently, each group of animals were administered with drugs, and the first day of drug administration was defined as the 1st day of the experiment.
Drug administration route and frequency: oral gavage, once per day, for 18 consecutive days.
General state observation: the mice were observed once per day, and observation contents included, but were not limited to, locally administered parts, physical signs, general behaviors, mental states, death and other situations, and other abnormal manifestations of the animals.
Tumor volume calculation: V = 0.5 a × b^2, wherein a was a long diameter of tumor and b was a short diameter of tumor. Tumor growth inhibition rates TGI (%) were used to evaluate anti-tumor effects of the compounds. […]

lung cancer cells A427 = experiment: 3D model proliferation inhibitory activity test against lung cancer cells A427 (CellTiter-3D-Glo); assay type: cell-based; conditions: Homo sapiens, A-427, low-adhesion 96-well U-bottom plate
Experimental: (§1) Cell proliferation activity was detected by a CellTiter-3D-Glo reagent method. A specific method was as follows: A427 cells in logarithmic growth period were digested, diluted to a suitable cell density with MEM complete medium containing 10% FBS and 1% PS, inoculated into a low-adhesion 96-well U-bottom plate, and cultured in 5% CO2; and then a series of to-be-tested compounds with concentration gradient was added, and incubated in a 5% CO2 incubator. After finishing the incubation, the cells were lysed and detected by using the CellTiter-3D-Glo reagent. Chemiluminescence values were measured by a microplate reader, and data were fitted by Graphpad Prism software, so as to calculate IC50 values of tested substances.

[4] = system: colorectal cancer cells SW480; experiment: 3D model proliferation inhibitory activity test against colorectal cancer cells SW480 (CellTiter-3D-Glo); assay type: cell-based; conditions: Homo sapiens, low-adhesion 96-well U-bottom plate
Experimental: as §1, with “SW480” for “A427”, “DMEM” for “MEM”

[5] = system: colorectal cancer cells HCT116; experiment: Proliferation inhibitory activity test against colorectal cancer cells HCT116 (CellTiter-3D-Glo); assay type: cell-based; conditions: Homo sapiens, HCT-116, low-adhesion 96-well U-bottom plate
Experimental: Cell proliferation activity was detected by a CellTiter-3D-Glo reagent method. A testing process was as follows: HCT116 cells in logarithmic growth period were digested, diluted to a suitable cell density with McCoy's 5A complete medium containing 10% FBS and 1% PS, inoculated into a low-adhesion 96-well U-bottom plate, and cultured in 5% CO2; and then a series of to-be-tested compounds with concentration gradient was added, and the system was incubated in a 5% CO2 incubator. After finishing the incubation, the cells were lysed and detected by using the CellTiter-3D-Glo reagent. Chemiluminescence values were measured by a microplate reader, and data were fitted by Graphpad Prism software, so as to calculate IC50 values of tested substances. Test results can be seen in the following table: wherein, "A" represents inhibitory activity IC50 < 20 nM, "B" represents inhibitory activity 20 nM ≤ IC50 < 50 nM, and "C" represents inhibitory activity IC50 ≥ 50 nM.

Compound | IC50 (lung cancer cells A427) [nM] | IC50 [4] [nM] | IC50 [5] [nM] | other results
C=CCNC(=O)c1cc(Cc2ccnc(NS(=O)(=O)NC)c2F)c(F)c(F)c1Nc1ccc(I)cc1F [Compound 4-1, N-allyl-3,4-difluoro-5-((3-fluoro-2-((N-methylaminosulfonyl)amino)pyridin-4-yl)methyl)-2-((2-fluoro-4-iodophenyl)amino)benzamide] | 1.16 | 0.89 | < 20 | diets, weights and activities of the animals during the drug administration [1]: normal; Tumor inhibition rate [1]: +++ (tumor inhibition rate > 90%); inhibitory effects on the growth of subcutaneously transplanted tumors of pancreatic cancer MIA PaCa-2 cells in the nude mice [1]: significant inhibitory effects; bioavailability ([2]; both sexes, rat, plasma, single dose, intravenous and oral gavage, read-out: absolute bioavailability (F%)): > 65%; absorption and clearance rates ([2]; result in words): greater; Tumor inhibition rate ([3]; SW480 subcutaneous xenograft, BALB/c nude mice): ++++ (tumor inhibition rate > 100%); inhibitory effect on the growth of subcutaneously transplanted tumors of colorectal cancer SW480 cells in the nude mice ([3]; result in words): significant inhibitory effect
C=C[C@@H](C)NC(=O)c1cc(Cc2ccnc(NS(=O)(=O)NC)c2F)c(F)c(F)c1Nc1ccc(I)cc1F [Compound 4-5, (R)-N-(but-3-en-2-yl)-3,4-difluoro-5-((3-fluoro-2-((N-methylaminosulfonyl)amino)pyridin-4-yl)methyl)-2-((2-fluoro-4-iodophenyl)amino)benzamide] | 2.13 | – | < 20 | –
[2H]C([2H])(C=C)NC(=O)c1cc(Cc2ccnc(NS(=O)(=O)NC)c2F)c(F)c(F)c1Nc1ccc(I)cc1F [Compound 4-7, N-(allyl-1,1-d2) -3,4-difluoro-5-((3-fluoro-2-((N-methylaminosulfonyl)amino)pyridin-4-yl)methyl)-2-((2-fluoro-4-iodophenyl)amino)benzamide] | 1.09 | – | – | –
C=CCNC(=O)c1cc(Cc2ccnc(NS(=O)(=O)NCC)c2F)c(F)c(F)c1Nc1ccc(I)cc1F [Compound 4-8, N-allyl-5-((2-((N-ethylaminosulfonyl)amino)-3-fluoropyridin-4-yl)methyl)-3,4-difluoro-2-((2-fluor o-4-iodophenyl)amino)benzamide] | 2.88 | – | < 20 | –
[2H]C([2H])([2H])NS(=O)(=O)Nc1nccc(Cc2cc(C(=O)NCC=C)c(Nc3ccc(I)cc3F)c(F)c2F)c1F [Compound 4-10, N-allyl-3,4-difluoro-5-((3-fluoro-2-((N-methyl-d3-aminosulfonyl)amino)pyridin-4-yl)methyl)-2-((2-fluoro-4-iodophenyl)amino)benzamide] | 0.89 | 1.05 | < 20 | –
C=CCNC(=O)c1cc(Cc2ccnc(NS(=O)(=O)NC)c2F)c(F)c(F)c1Nc1ccc(C=C)cc1F [Compound 4-14, N-allyl-3,4-difluoro-5-((3-fluoro-2-((N-methylaminosulfonyl)amino)pyridin-4-yl)methyl)-2-((2-fluoro-4-vinylphenyl)amino)benzamide] | – | 2.67 | < 20 | –
C=CCONC(=O)c1cc(Cc2ccnc(NS(=O)(=O)NC)c2F)c(F)c(F)c1Nc1ccc(I)cc1F [Compound 5-1, N-(allyloxy)-3,4-difluoro-5-((3-fluoro-2-((N-methylaminosulfonyl)amino)pyridin-4-yl)methyl)-2-((2-fluoro-4-iodophenyl)amino)benzamide] | 0.53 | 0.17 | – | diets, weights and activities of the animals during the drug administration [1]: normal; Tumor inhibition rate [1]: +++ (tumor inhibition rate > 90%); inhibitory effects on the growth of subcutaneously transplanted tumors of pancreatic cancer MIA PaCa-2 cells in the nude mice [1]: significant inhibitory effects
C=CCCONC(=O)c1cc(Cc2ccnc(NS(=O)(=O)NC)c2F)c(F)c(F)c1Nc1ccc(I)cc1F [Compound 5-2, N-(but-3-en-1-yloxy)-3,4-difluoro-5-((3-fluoro-2-((N-methylaminosulfonyl)amino)pyridin-4-yl)methyl)-2-((2-fluoro-4-iodophenyl)amino)benzamide] | – | 0.63 | – | –
